Measurements: US7767676B2, “Dihydro-1,3,5-triazine amine derivatives and their therapeutic uses” (Merck Sante, priority 2000, dated 2010)
Where a name gives a salt, the structure may show the parent alone. Read-outs that look alike come from different tables or passages of the source.

How the values were obtained:
[1] = tested on: non-insulin-dependent diabetes induced in rats by Streptozotocin; assay: Antidiabetic activity in the Nostz rat (non-insulin-dependent diabetes induced by neonatal streptozotocin), glycaemia after oral treatment; format: in vivo; settings: diabetic rats, blood 2 h after last administration; for change in vivo at 20 mg/kg: 20 mg/kg/D oral; for change in vivo at 200 mg/kg: 200 mg/kg/D oral
Description: Study of the Antidiabetic Activity in the Nostz Rat
The antidiabetic activity of the compounds of formula (I) administered orally was determined on an experimental model of non-insulin-dependent diabetes induced in rats by Streptozotocin.
The non-insulin-dependent diabetes model is obtained in rats by neonatal injection (on the day of birth) of streptozotocin.
The diabetic rats used were 8 weeks old. The animals were kept, from the day of their birth to the day of the experiment, in an animal house at a controlled temperature of 21 to 22° C. and subjected to a fixed cycle of light (from 7 am to 7 pm) and darkness (from 7 pm to 7 am). Their diet consisted of a maintenance diet, water and food were provided “ab libitum”, with the exception of the 2 hours of fasting preceding the tests when the food is withdrawn (postabsorptive state).
The rats were treated by the oral route for one (D1) or four (D4) days with the product to be tested. Two hours after the last administration of the product and 30 minutes after anaesthetizing the animals with sodium pentobarbital (Nembutal a), 300 μl of blood sample are collected from the end of the tail.
By way of example, results obtained are assembled in Table III.

[2] = tested on: Maillard reaction of bovine albumin with methylglyoxal; assay: Antiglycation activity: fructosamine assay after incubation of albumin with methylglyoxal; format: biochemical; settings: compound 10 mM, bovine albumin 6.6 mg/ml, 1 mM methylglyoxal, pH 7.4, 37° C., 6 days; relative to incubation without compound
Description: Study of the Antiglycation Activity
The compounds (I) are also capable of inhibiting the so-called Maillard reactions by “capturing effect” on the α-dicarbonyl-containing derivatives such as glyoxal—this is the antiglycation effect. This Maillard reaction inhibiting effect of the compounds according to the invention was studied in vitro by assaying ketamines (“fructosamines”) produced during the incubation of albumin with methylglyoxal in the presence or otherwise of a compound of formula (I) according to the invention.
A solution of bovine albumin at 6.6 mg/ml in 0.2 M phosphate buffer, pH 7.4, is incubated with 1 mM methylglyoxal in the presence or otherwise of a compound according to the invention at a concentration of 10 mM. The incubation is carried out under sterile conditions at 37° C. for 6 days. At the end of the incubation period, the quantity of ketamines is measure with a commercially available fructosamine assay kit (“FRA” kit, product reference: 0757055, Roche S. A. products) according to the manufacturer's instructions.
By way of example, results obtained under these experimental conditions are assembled in Table IV: level of fructosamine after incubation of the albumin with the methylglyoxal in the presence of compounds (I) according to the invention in relation to the level of fructosamine when albumin is incubated with methylglyoxal in the absence of the compounds (I) according to the invention.

[3] = 24 h, 1 day of treatment, read-out: percentage variation of glycaemia at D1 relative to D0
[4] = 96 h, 4 days of treatment, read-out: percentage variation of glycaemia at D4 relative to D0

melting point	Compound	change in vivo at 20 mg/kg [1, 3]	change in vivo at 200 mg/kg [1, 3]	change in vivo at 20 mg/kg [1, 4]	change in vivo at 200 mg/kg [1, 4]	Reduction in the level of fructosamines (%) [2]
	CCC1N=C(N)NC(N(C)C)=N1 (stereo not drawn) [Compound 1, 2-amino-3,6-dihydro-4-dimethylamino-6-ethyl-1,3,5-triazine hydrochloride]	-7%	-13%	-2%	-15%	62%
	CN(C)C1=NC(c2ccccc2)N=C(N)N1 (stereo not drawn) [Compound 10]					80%
	COc1ccc(C2N=C(N)NC(N(C)C)=N2)cc1 (stereo not drawn) [Compound 11]					89%
	CN(C)C1=NC(c2ccc(O)cc2)N=C(N)N1 (stereo not drawn) [Compound 12]					90%
> 260 °C	CN(C)C1=NC(c2ccc(O)cc2)N=C(N)N1 (stereo not drawn) [Compound 13]					95%
	CC1N=C(N)NC(N(C)C)=N1 (stereo not drawn) [Compound 18]	-6%	-29%	-4%	-28%	69%
	CN(C)C1=NCN=C(N)N1 [Compound 33]	-7%	-9%	-6%	-14%	79%
	CN(C)C1=NC(C2CCCCC2)N=C(N)N1 (stereo not drawn) [Compound 34]	-5%	-6%	-15%	-21%	64%
	CN(C)C1=NC(C(F)(F)F)N=C(N)N1 (stereo not drawn) [Compound 36]					66%
	CN(C)C1=NC(Cc2ccccc2)N=C(N)N1 (stereo not drawn) [Compound 37]	-7%	-10%	-8%	-15%	65%
	CN(C)C1=NC(c2ccco2)N=C(N)N1 (stereo not drawn) [Compound 40]	-8%	-18%	-12%	-18%	66%
	CC(C)CC1N=C(N)NC(N(C)C)=N1 (stereo not drawn) [Compound 43]	-4%	-12%	-16%	-17%	68%
	CN(C)C1=NC(C2CC=CCC2)N=C(N)N1 (stereo not drawn) [Compound 45]					67%
